Consider 22 compounds from patent US12116358B2, “Substituted indoles and methods of use thereof” (EPIZYME, INC., priority 2018, dated 2024).

Like-named read-outs stand apart in the source and are kept apart here. Where only a bound is given, the exact number is not on record here.

For one experiment, the target named is T1, SETD2(1434-1711) (Homo sapiens, UniProt Q9BYW2).
T1 construct: SETD2 (1434-1711) Assay; catalogue N/A
T1 sequence (Q9BYW2 1434-1711): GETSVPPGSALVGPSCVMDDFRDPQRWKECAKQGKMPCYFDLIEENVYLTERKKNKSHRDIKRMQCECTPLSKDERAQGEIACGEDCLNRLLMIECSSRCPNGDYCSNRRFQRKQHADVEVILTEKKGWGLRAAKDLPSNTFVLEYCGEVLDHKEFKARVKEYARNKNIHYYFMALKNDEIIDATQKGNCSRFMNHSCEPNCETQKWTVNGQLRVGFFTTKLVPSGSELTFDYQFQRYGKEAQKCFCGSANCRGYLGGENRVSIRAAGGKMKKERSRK
As to the kind of experiment: SETD2 (1434-1711) assay. It counts as biochemical. Conditions: read-out: SETD2 (1434-1711).

The subject of another experiment is H3K36me3 in A549 cells. Put plainly: In-Cell Western (ICW) assay of SETD2 inhibitors (A549 assay). The note with it: A549 cells, read-out: SETD2 A549. Type of experiment: cell-based, human. The gist of the method:
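A549 cells seeded at 4,000/well onto compound and incubated 3 days at 37° C. Methanol-fixed cells stained overnight at 4° C with anti-H3K36me3 (1:1000), then IRDye 800CW secondary with DRAQ5 DNA counterstain. Plates read by Licor imaging at 700 and 800 channels.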

In the case of `CC(=O)N1CCN(C2CC(NC(=O)c3cc4c(F)ccc(C)c4[nH]3)CN(C)C2)CC1` (centres unmarked) [compound 360], the IC50 was 1200 nM on SETD2(1434-1711) and over 2000 nM in the experiment with H3K36me3 in A549 cells.

`Cc1ccc(F)c2cc(C(=O)N[C@@H]3CCC[C@@H](N4CCn5ncnc5C4)C3)[nH]c12` [compound 869]: the figures for the IC50 on SETD2(1434-1711) and in the experiment on H3K36me3 in A549 cells were 6600 nM and over 2000 nM, respectively.

As to `Cc1ccc(F)c2cc(C(=O)NC3CCCC(N4CCC(N(C)C(=O)C5CC5)C4)C3)[nH]c12` (centres unmarked) [compound 971], the IC50 was 10 nM at SETD2(1434-1711) and 100 nM in the experiment on H3K36me3 in A549 cells.

For the compound `Cc1ccc(F)c2cc(C(=O)N[C@@H]3CCC[C@@H](N4CCN5C(=O)NC[C@H]5C4)C3)[nH]c12` [compound 1082], the IC50 is 600 nM on SETD2(1434-1711) and over 2000 nM with H3K36me3 in A549 cells (Homo sapiens).

For the compound `COC(=O)CC(NC(=O)c1cc2cccc(C)c2[nH]1)c1ccc(C#N)cc1` (centres unmarked) [compound 527], the IC50 at SETD2(1434-1711) came to 14700 nM; in the experiment with H3K36me3 in A549 cells, 24200 nM.

As for `CCC1CN(C2CCCC(NC(=O)c3cc4c(F)ccc(C)c4[nH]3)C2)CCN1C(C)=O` (centres unmarked) [compound 1055], the IC50 was found to be 9 nM on SETD2(1434-1711) and 5 nM in the experiment on H3K36me3 in A549 cells.

As to `COCC(=O)N(C)[C@H]1CCN([C@@H]2CCC[C@@H](NC(=O)c3cc4c(F)ccc(C)c4[nH]3)C2)C1` [compound 1063], the IC50 at SETD2(1434-1711) is 2900 nM; in the experiment on H3K36me3 in A549 cells (Homo sapiens), over 2000 nM.

For `CC(=O)N1CCN(c2ccccc2CNC(=O)c2cc3cccc(C)c3[nH]2)CC1` [compound 499], the IC50 at SETD2(1434-1711) was found to be 9100 nM; in the experiment with H3K36me3 in A549 cells it was 13900 nM.

`Cc1cccc2cc(C(=O)Nc3cccc(CN4CCOCC4)c3)[nH]c12` [compound 478]: the IC50 at SETD2(1434-1711) turned out to be 4100 nM; in the experiment with H3K36me3 in A549 cells (Homo sapiens), 9400 nM.

Regarding `COCCN1CCN(c2cccc(NC(=O)c3cc4c(F)ccc(C)c4[nH]3)c2)CC1` [compound 223], the IC50 was found to be 90 nM at SETD2(1434-1711) and 500 nM with H3K36me3 in A549 cells.

Consider `Cc1cccc2cc(C(=O)Nc3cccc(N4CCN(S(=O)(=O)CCN)CC4)c3)[nH]c12` [compound 449], for which the IC50 on SETD2(1434-1711) came out at 200 nM; in the experiment on H3K36me3 in A549 cells (Homo sapiens), 5500 nM.

Turning to `Cc1ccc(F)c2cc(C(=O)Nc3cccc(-n4cncn4)c3)[nH]c12` [compound 162], the values for the IC50 at SETD2(1434-1711) and in the experiment with H3K36me3 in A549 cells (Homo sapiens) were 90 nM and 300 nM, respectively.

Consider `Cc1ccc(F)c2cc(C(=O)Nc3cccc(C4CCC(N(C)C)C4)c3)[nH]c12` (centres unmarked) [compound 282], for which the results for the IC50 at SETD2(1434-1711) and in the experiment on H3K36me3 in A549 cells (Homo sapiens) were 40 nM and 1000 nM, respectively.

For the compound `Cc1cccc2cc(C(=O)NC3CCC(NS(=O)(=O)CCCN)CC3)[nH]c12` (centres unmarked) [compound 581], the IC50 at SETD2(1434-1711) was 28200 nM; in the experiment with H3K36me3 in A549 cells, over 25000 nM.

Turning to `Cc1ccc(F)c2cc(C(=O)Nc3cccc(-c4ccncc4)c3)[nH]c12` [compound 116], the IC50 worked out at 40 nM on SETD2(1434-1711) and 200 nM with H3K36me3 in A549 cells (Homo sapiens).

`Cc1cccnc1C(CN1CCOCC1)N(C)C(=O)c1cc2cccc(C)c2[nH]1` (centres unmarked) [compound 601]: the IC50 was over 50000 nM on SETD2(1434-1711) and over 25000 nM in the experiment with H3K36me3 in A549 cells.

As to `Cc1ccc(F)c2cc(C(=O)Nc3cccc(N4CCC(N5CCN(C)CC5)CC4)c3)[nH]c12` [compound 152], the IC50 turned out to be 10 nM on SETD2(1434-1711) and 300 nM in the experiment on H3K36me3 in A549 cells (Homo sapiens).

For the compound `Cc1ccc(F)c2cc(C(=O)NC3CCCC(c4cncnc4)C3)[nH]c12` (centres unmarked) [compound 380], the IC50 is over 10000 nM on SETD2(1434-1711) and over 2000 nM in the experiment on H3K36me3 in A549 cells.

For the compound `CC(=O)N1CCC2C1CCN2c1cc(F)cc(NC(=O)c2cc3c(F)ccc(C)c3[nH]2)c1` (centres unmarked) [compound 13], the IC50 at SETD2(1434-1711) came out at 10 nM; in the experiment on H3K36me3 in A549 cells it was 50 nM.

For `CNC(=C[N+](=O)[O-])N1CCN(C2CCCC(NC(=O)c3cc4c(F)ccc(C)c4[nH]3)C2)CC1` (centres unmarked) [compound 1169], the figures for the IC50 at SETD2(1434-1711) and in the experiment on H3K36me3 in A549 cells were 900 nM and over 2000 nM, respectively.

Consider `Cc1ccc(F)c2cc(C(=O)NC3CCCC(N4CCn5ncnc5C4)C3)[nH]c12` (centres unmarked) [compound 868], for which the values for the IC50 on SETD2(1434-1711) and with H3K36me3 in A549 cells were 100 nM and 200 nM, respectively.

Regarding `Cc1ccc(F)c2cc(C(=O)N[C@@H]3CCC[C@@H](N4CCNC(=O)CC4)C3)[nH]c12` [compound 933], the IC50 at SETD2(1434-1711) was 700 nM; in the experiment with H3K36me3 in A549 cells (Homo sapiens), over 2000 nM.
